Measured values taken from the Kinase Knowledgebase extract (Sharma et al. 2016).

biological target: PIK3CD (Human) (UniProt O00329); assay: Enzyme Assay
Sequence (O00329 whole entry, looked up): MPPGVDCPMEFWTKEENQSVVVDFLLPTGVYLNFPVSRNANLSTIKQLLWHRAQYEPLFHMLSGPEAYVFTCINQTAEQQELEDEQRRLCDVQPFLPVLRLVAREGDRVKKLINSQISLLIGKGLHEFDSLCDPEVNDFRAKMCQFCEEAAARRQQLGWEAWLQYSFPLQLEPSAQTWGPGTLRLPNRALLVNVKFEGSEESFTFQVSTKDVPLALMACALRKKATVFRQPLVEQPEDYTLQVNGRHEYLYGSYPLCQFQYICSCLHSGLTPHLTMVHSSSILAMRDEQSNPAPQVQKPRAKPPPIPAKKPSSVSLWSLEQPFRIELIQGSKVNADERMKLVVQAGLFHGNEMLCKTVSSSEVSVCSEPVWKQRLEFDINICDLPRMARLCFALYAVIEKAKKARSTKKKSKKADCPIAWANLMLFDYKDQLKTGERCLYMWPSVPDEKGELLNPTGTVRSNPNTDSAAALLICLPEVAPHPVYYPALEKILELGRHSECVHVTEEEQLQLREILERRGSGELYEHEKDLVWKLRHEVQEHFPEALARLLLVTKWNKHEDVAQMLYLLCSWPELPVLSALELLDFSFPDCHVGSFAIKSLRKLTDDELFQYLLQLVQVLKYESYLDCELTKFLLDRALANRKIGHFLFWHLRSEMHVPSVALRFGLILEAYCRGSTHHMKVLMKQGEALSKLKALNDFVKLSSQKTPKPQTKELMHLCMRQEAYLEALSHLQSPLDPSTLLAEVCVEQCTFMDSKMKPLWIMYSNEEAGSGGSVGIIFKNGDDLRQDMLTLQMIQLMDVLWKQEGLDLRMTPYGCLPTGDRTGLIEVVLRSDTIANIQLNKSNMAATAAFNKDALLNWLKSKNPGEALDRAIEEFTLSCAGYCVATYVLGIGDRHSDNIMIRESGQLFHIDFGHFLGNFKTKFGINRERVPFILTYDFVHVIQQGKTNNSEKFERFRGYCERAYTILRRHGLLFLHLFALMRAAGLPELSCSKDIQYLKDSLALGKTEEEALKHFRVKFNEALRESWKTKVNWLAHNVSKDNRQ

| SMILES | IC50 [nM] |
| --- | --- |
| CC[C@H](Nc1nc(N)nc(N)c1C#N)c1nc2ccc(F)c(F)c2c(=O)n1-c1cc(F)cc(F)c1 | 10 to 50 |
| CC[C@H](Nc1nc(N)nc(N)c1C#N)c1nc2c(F)ccc(F)c2c(=O)n1-c1cccc(C#N)c1 | 10 to 50 |
| C[C@H](Nc1nc(N)nc(N)c1C#N)c1nc2c(F)cc(F)cc2c(=O)n1-c1cc(F)cc(F)c1 | 10 to 50 |
| Cc1ccc(F)c2c(=O)n(-c3cc(F)cc(C#N)c3)c([C@H](C)Nc3nc(N)nc(N)c3C#N)nc12 | 10 to 50 |
| CC[C@H](Nc1nc(N)nc(N)c1C#N)c1nc2c(Cl)ccc(F)c2c(=O)n1-c1cc(F)cc(F)c1 | 10 to 50 |
| CC(C)c1cccc(-n2c([C@H](C)Nc3nc(N)nc(N)c3C#N)nc3cccc(Cl)c3c2=O)c1 | 1 to 10 |
| Cc1ccc(F)c2c(=O)n(-c3cccc(C#N)c3)c([C@H](C)Nc3nc(N)nc(N)c3C#N)nc12 | 10 to 50 |
| C[C@H](Nc1nc(N)nc(N)c1C#N)c1nc2cccc(F)c2c(=O)n1-c1cc(F)cc(Cl)c1 | 10 to 50 |
| C[C@H](Nc1nc(N)nc(N)c1C#N)c1nc2c(C#N)cc(F)cc2c(=O)n1-c1cc(F)cc(F)c1 | 10 to 50 |
| CC[C@H](Nc1nc(N)nc(N)c1C#N)c1nc2cccc(F)c2c(=O)n1-c1cccc(F)c1 | 1 to 10 |
| C[C@H](Nc1nc(N)nc(N)c1C#N)c1nc2cccc(F)c2c(=O)n1-c1ccccc1 | 1 to 10 |
| COc1cc(-n2c([C@H](C)Nc3nc(N)nc(N)c3C#N)nc3cccc(Cl)c3c2=O)ccc1F | 1 to 10 |
| C[C@H](Nc1nc(N)nc(N)c1C#N)c1nc2ccc(F)cc2c(=O)n1-c1cccc(Cl)c1 | 1 to 10 |
| C[C@H](Nc1nc(N)nc(N)c1C#N)c1nc2cccc(Cl)c2c(=O)n1-c1cccc(C(F)(F)F)c1 | 1 to 10 |
| CCc1cccc2c(=O)n(-c3cc(F)cc(F)c3)c([C@H](C)Nc3nc(N)nc(N)c3C#N)nc12 | 10 to 50 |

Next, values leading:

| IC50 [nM] | SMILES |
| --- | --- |
| ≤ 1 | C[C@H](Nc1nc(N)nc(N)c1C#N)c1nc2cccc(Cl)c2c(=O)n1-c1cccc(F)c1 |
| 1 to 10 | CC(C)C[C@H](Nc1nc(N)nc(N)c1C#N)c1nc2cccc(Cl)c2c(=O)n1-c1cccc(F)c1 |
| ≤ 1 | C[C@H](Nc1nc(N)nc(N)c1C#N)c1nc2c(F)ccc(F)c2c(=O)n1-c1ccccc1 |
| 1 to 10 | C[C@H](Nc1nc(N)nc(N)c1C#N)c1nc2c(Cl)cccc2c(=O)n1-c1ccccc1 |
| 1 to 10 | C[C@H](Nc1nc(N)nc(N)c1C#N)c1nc2cccc(C(F)F)c2c(=O)n1-c1cc(F)cc(C(F)F)c1 |
| 1 to 10 | CC[C@H](Nc1nc(N)nc(N)c1C#N)c1nc2cccc(Cl)c2c(=O)n1-c1cc(F)cc(F)c1 |
| ≤ 1 | Cc1cccc2c(=O)n(-c3cccc(Cl)c3)c([C@H](C)Nc3nc(N)nc(N)c3C#N)nc12 |
| 1 to 10 | C[C@H](Nc1nc(N)nc(N)c1C#N)c1nc2cccc(Cl)c2c(=O)n1-c1cccc(C#N)c1 |
| 1 to 10 | CCC[C@H](Nc1nc(N)nc(N)c1C#N)c1nc2cccc(F)c2c(=O)n1-c1cc(F)cc(F)c1 |
| 1 to 10 | Cc1cccc2c(=O)n(-c3ccccc3)c([C@H](C)Nc3nc(N)nc(N)c3C#N)nc12 |
| ≤ 1 | Cc1ccc(Cl)c2c(=O)n(-c3ccccc3)c([C@H](C)Nc3nc(N)nc(N)c3C#N)nc12 |
| ≤ 1 | C[C@H](Nc1nc(N)nc(N)c1C#N)c1nc2cccc(O)c2c(=O)n1-c1ccccc1 |
| ≤ 1 | C[C@H](Nc1nc(N)nc(N)c1C#N)c1nc2cccc(Cl)c2c(=O)n1-c1cccc(Cl)c1 |
